According to ChEMBL document CHEMBL1201862, “PubChem BioAssay data set” (2004):
Calls of active or inactive are those of the source.

What was measured:
[1] = biological target: T1, Mannose-6-phosphate isomerase (Homo sapiens, UniProt P34949); test: human PMI inhibitors, high substrate, primary screen, biochemical, fluorescence intensity, high mannose 6-phosphate (AID 1220)
T1 sequence (P34949 whole entry): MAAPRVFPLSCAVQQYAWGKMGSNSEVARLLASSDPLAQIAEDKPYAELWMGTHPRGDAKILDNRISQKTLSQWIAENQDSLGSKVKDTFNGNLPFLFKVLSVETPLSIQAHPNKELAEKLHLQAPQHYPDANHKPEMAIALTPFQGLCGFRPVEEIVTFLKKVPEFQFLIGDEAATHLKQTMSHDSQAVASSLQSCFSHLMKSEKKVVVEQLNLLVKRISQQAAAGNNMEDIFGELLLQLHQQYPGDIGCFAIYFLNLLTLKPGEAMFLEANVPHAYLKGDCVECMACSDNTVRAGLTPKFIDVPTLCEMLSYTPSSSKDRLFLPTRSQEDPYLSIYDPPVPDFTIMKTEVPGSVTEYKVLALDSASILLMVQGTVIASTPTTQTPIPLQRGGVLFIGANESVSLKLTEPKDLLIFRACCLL

Large T antigen = Large T antigen (Simian virus 40, UniProt P03070); type: functional, Betapolyomavirus macacae;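 further: Confirmatory-stage PubChem screen for compounds that inhibit SV40 T antigen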
[2] = biological target: Glutathione-S-transferase (Schistosoma japonicum, UniProt Q26513); test: biotin-GST/anti-GST TR-FRET signal inhibitors, dose response, artefact control for Vif-APOBEC3G degradation inhibitor project, biochemical (AID 1117362); type: functional
Sequence of Glutathione-S-transferase (Q26513 whole entry): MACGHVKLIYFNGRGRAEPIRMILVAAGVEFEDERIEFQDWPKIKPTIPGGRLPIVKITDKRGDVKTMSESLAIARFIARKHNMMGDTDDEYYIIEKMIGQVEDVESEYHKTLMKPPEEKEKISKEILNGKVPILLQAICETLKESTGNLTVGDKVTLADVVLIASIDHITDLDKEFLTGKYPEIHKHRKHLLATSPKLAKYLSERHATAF

Sequence of Large T antigen (P03070 whole entry): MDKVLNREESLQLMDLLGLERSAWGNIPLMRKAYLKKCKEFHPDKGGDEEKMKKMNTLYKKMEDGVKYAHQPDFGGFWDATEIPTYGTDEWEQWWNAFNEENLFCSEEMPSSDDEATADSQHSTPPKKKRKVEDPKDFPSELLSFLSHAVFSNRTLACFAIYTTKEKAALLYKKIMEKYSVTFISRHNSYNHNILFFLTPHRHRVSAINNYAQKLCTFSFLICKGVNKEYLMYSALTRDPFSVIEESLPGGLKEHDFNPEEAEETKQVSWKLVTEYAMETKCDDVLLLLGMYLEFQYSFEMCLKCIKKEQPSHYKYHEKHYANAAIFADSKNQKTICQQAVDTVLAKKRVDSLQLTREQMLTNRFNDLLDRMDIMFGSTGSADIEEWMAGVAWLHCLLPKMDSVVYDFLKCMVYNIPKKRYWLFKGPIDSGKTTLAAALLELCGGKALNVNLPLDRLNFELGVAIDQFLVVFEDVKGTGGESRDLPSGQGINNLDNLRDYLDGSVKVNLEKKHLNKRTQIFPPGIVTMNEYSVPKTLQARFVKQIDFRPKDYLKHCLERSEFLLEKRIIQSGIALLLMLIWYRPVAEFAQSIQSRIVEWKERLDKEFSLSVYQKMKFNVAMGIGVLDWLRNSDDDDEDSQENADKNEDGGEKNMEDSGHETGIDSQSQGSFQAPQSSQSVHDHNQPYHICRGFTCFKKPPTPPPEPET

CN(C(=S)Nc1cccnc1)c1ccc(O)cc1
IC50 [1]: > 50 µM (not active)
IC50 (Large T antigen): 58.4 µM (active)
IC50 [2]: > 100 µM (active)
